Experimental data: PubChem BioAssay (NCI)
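Results reflect a 48-hour exposure of cells in 96-well plates to compound at five concentrations. GI50 marks 50% less growth. At the TGI there is no net growth.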

Assays:
Test in all cases: inhibition of tumour cell growth, NCI panel, 48 h; in the data active = GI50 below about 0.43 µM; inactive = the rest
[1] = test system: OVCAR-8 ovarian
[2] = test system: NCI-H460 lung
[3] = test system: PC-3 prostate
[4] = test system: KM12 colon
[5] = test system: HT29 colon
[6] = test system: TK-10 renal
[7] = test system: SF-539 CNS
[8] = test system: CAKI-1 renal
[9] = test system: COLO 205 colon
[10] = test system: IGROV1 ovarian
[11] = test system: A549 NSCLC
[12] = test system: UACC-62 melanoma
[13] = test system: EKVX NSCLC
[14] = test system: SF-295 CNS
[15] = test system: HOP-92 NSCLC
[16] = test system: NCI/ADR-RES ovarian
[17] = test system: A498 renal
[18] = test system: NCI-H522 lung
[19] = test system: MOLT-4 leukemia
[20] = test system: HCT-116 colon
[21] = test system: OVCAR-3 ovarian
[22] = test system: ACHN renal
[23] = test system: MDA-MB-468 breast
[24] = test system: 786-0 renal
[25] = test system: HS 578T breast
[26] = test system: MDA-MB-435
[27] = test system: OVCAR-4 ovarian
[28] = test system: MCF7 breast
[29] = test system: SNB-19 CNS
[30] = test system: SK-OV-3 ovarian
[31] = test system: SK-MEL-28 melanoma
[32] = test system: SK-MEL-5 melanoma
[33] = test system: SN12C renal
[34] = test system: OVCAR-5 ovarian
[35] = test system: HCT-15 colon
[36] = test system: NCI-H23 lung
[37] = test system: MALME-3M melanoma
[38] = test system: HCC-2998 colon
[39] = test system: T-47D breast
[40] = test system: HL-60(TB) leukemia
[41] = test system: SR leukemia
[42] = test system: HOP-62 NSCLC
[43] = test system: K-562 leukemia
[44] = test system: CCRF-CEM leukemia
[45] = test system: SF-268 CNS
[46] = test system: NCI-H226 lung
[47] = test system: SW-620 colon
[48] = test system: LOX IMVI melanoma
[49] = test system: RXF 393 renal
[50] = test system: U251 CNS
[51] = test system: RPMI-8226 leukemia
[52] = test system: BT-549 breast
[53] = test system: UACC-257 melanoma
[54] = test system: M14 melanoma
[55] = test system: DU-145 prostate

NCCCCn1c(SCCc2c[nH]c3ccccc23)nnc1-c1ccc2ccccc2n1
12.8 µM: TGI [29]
13.9 µM: TGI [51]
10.2 µM: TGI [12] | TGI [21] | TGI [50]
inactive: GI50 [1] 5.63 µM | GI50 [2] 6.17 µM | GI50 [3] 5.35 µM | GI50 [4] 6.54 µM | GI50 [5] 5.28 µM | GI50 [6] 5.91 µM | GI50 [7] 5.85 µM | GI50 [8] 5.74 µM | GI50 [9] 4.54 µM | GI50 [10] 5.84 µM | GI50 [11] 5.1 µM | GI50 [12] 5.46 µM | GI50 [13] 5.32 µM | GI50 [14] 5.65 µM | GI50 [15] 4.59 µM | GI50 [16] 6.29 µM | GI50 [17] 6.06 µM | GI50 [18] 5.35 µM | GI50 [19] 5.47 µM | GI50 [20] 4.74 µM | GI50 [21] 5.16 µM | GI50 [22] 5.42 µM | GI50 [23] 4.94 µM | GI50 [24] 5.9 µM | GI50 [25] 5.6 µM | GI50 [26] 6.27 µM | GI50 [27] 5.75 µM | GI50 [28] 5.38 µM | GI50 [29] 6.3 µM | GI50 [30] 5.69 µM | GI50 [31] 5.94 µM | GI50 [32] 5.84 µM | GI50 [33] 5.6 µM | GI50 [34] 5.66 µM | GI50 [35] 6.26 µM | GI50 [36] 5.57 µM | GI50 [37] 5.35 µM | GI50 [38] 6.01 µM | GI50 [39] 6.08 µM | GI50 [40] 4.99 µM | GI50 [41] 5.88 µM | GI50 [42] 5.35 µM | GI50 [43] 5.58 µM | GI50 [44] 7.21 µM | GI50 [45] 5.69 µM | GI50 [46] 5.29 µM | GI50 [47] 5.51 µM | GI50 [48] 5.28 µM | GI50 [49] 4.8 µM | GI50 [50] 5.36 µM | GI50 [51] 5.41 µM | GI50 [52] 5.67 µM | GI50 [53] 5.78 µM | GI50 [54] 5.48 µM | GI50 [55] 6.51 µM
13.4 µM: TGI [16]
11 µM: TGI [53]
9.87 µM: TGI [11]
12 µM: TGI [27]
10.7 µM: TGI [14] | TGI [52]
9.31 µM: TGI [20]
11.1 µM: TGI [10] | TGI [47]
12.2 µM: TGI [55]
13.2 µM: TGI [43]
13.1 µM: TGI [19]
11.4 µM: TGI [40]
10.5 µM: TGI [15] | TGI [33] | TGI [36] | TGI [42]
9.58 µM: TGI [23]
12.3 µM: TGI [4]
11.8 µM: TGI [26]
11.7 µM: TGI [2]
11.2 µM: TGI [17] | TGI [30]
9.4 µM: TGI [49]
10.4 µM: TGI [5] | TGI [18] | TGI [28] | TGI [54]
9.3 µM: TGI [9]
11.9 µM: TGI [8]
11.5 µM: TGI [35]
10 µM: TGI [48]
14.6 µM: TGI [25] | TGI [39]
10.6 µM: TGI [7] | TGI [13] | TGI [32]
12.7 µM: TGI [41]
10.9 µM: TGI [6] | TGI [24] | TGI [38]
10.8 µM: TGI [1] | TGI [31] | TGI [34] | TGI [46]
20.3 µM: TGI [44]
10.3 µM: TGI [22] | TGI [37]
11.6 µM: TGI [3]
12.1 µM: TGI [45]
